Each compound was assayed against Melatonin receptor type 1A (Ovis aries, UniProt P48040).
Melatonin receptor type 1A, sequence (P48040 whole entry): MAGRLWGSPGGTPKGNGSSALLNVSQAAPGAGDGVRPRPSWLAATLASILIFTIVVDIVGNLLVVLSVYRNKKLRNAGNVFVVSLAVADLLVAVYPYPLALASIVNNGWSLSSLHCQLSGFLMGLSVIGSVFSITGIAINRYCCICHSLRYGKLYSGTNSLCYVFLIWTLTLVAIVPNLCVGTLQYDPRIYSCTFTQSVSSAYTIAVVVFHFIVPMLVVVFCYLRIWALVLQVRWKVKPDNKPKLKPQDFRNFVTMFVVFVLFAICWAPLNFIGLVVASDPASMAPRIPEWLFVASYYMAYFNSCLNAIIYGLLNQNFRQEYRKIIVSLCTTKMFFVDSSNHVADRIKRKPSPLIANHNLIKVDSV

SMILES | Ki
CC(=O)n1cc(CCN)c2cc(O)ccc21 [NSC_260803] | 140 nM
COc1ccc2[nH]c(I)c(CCNC(C)=O)c2c1 | 0.03 nM
NCCc1c[nH]c2ccc(O)cc12 [[3H]-5-HT] | > 10000 nM
COc1cc2c(CCNC(C)=O)c[nH]c2cc1Cl | 0.25 nM

Each compound was assayed against T1, Melatonin receptor type 1B (Homo sapiens, UniProt P49286).
T1 sequence (P49286 whole entry): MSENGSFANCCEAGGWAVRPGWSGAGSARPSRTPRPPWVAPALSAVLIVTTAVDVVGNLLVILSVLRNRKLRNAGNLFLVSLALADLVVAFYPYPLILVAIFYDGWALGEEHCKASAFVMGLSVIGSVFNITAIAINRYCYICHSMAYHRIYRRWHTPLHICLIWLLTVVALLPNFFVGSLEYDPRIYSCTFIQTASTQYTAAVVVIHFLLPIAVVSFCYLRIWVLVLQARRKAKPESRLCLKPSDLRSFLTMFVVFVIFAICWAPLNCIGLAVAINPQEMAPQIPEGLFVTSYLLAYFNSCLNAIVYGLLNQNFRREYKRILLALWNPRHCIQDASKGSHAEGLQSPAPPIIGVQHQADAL

SMILES | Ki
CC(=O)n1cc(CCN)c2cc(O)ccc21 [NSC_260803] | 170 nM
COc1cc2c(CCNC(C)=O)c[nH]c2cc1O [melatonin, 6-Hydroxy] | 2 nM

Source: BindingDB's records for doi:10.1016/0896-6273(94)90055-8 (Massachusetts General Hospital, 1994)
